One assay concerns the target T1, human Nav1.5 (Homo sapiens, UniProt Q14524).
T1 construct: expressed in transfected cells; host or cells: HEK 293
The experiment in a line: IonWorks Quattro automated patch-clamp, Nav1.5 (selectivity against Nav1.7). It is filed as cell-based. To be noted: IonWorks measurement, HEK 293 cells, inactivated state block. The procedure: (§1) Compounds were tested on human Nav1.7 and Nav1.5 channels stably expressed in HEK 293 cells. […] Cells were sealed on a planar substrate using the Population Patch […] (PPC) technology. Electrical access was obtained using both nystatin and amphotericin. A double-pulse protocol was used for the determination of IC50 values for inactivated state block. Nav1.7 and Nav1.5 expressing cells were voltage clamped at −100 mV and −110 mV, respectively. A depolarizing prepulse to −10 mV (Nav1.7) or −30 mV (Nav1.5) for 1000 ms followed by a 10 ms repolarization to −100 mV (Nav1.7) or −110 mV (Nav1.5) was given to generate fractional channel inactivation of 50%, followed by a 10 ms test pulse to −10 mV (Nav1.7) or −30 mV (Nav1.5) to measure peak current in control conditions and after compound addition. The following recording solutions were used (mM). External: 150 NaCl, 2 CaCl2, 5 KCl, 1 Mg Cl2, 10 HEPES, 12 Dextrose; internal: 120 CsF, 30 CsCl, 10 EGTA, 5 HEPES, 5 NaF, 2 MgCl2.
(§2) For all electrophysiology experiments, offline analysis was used to determine percent inhibition as a function of drug concentration. IC50 values were determined by fitting to the Hill equation.
A general note: The patch-clamp technique gives a direct electrical read-out from membranes.

For a further assay, the target named is T2, human Nav1.7 (Homo sapiens, UniProt Q15858).
T2 construct: expressed in transfected cells; host or cells: HEK 293
T2 sequence (Q15858 whole entry): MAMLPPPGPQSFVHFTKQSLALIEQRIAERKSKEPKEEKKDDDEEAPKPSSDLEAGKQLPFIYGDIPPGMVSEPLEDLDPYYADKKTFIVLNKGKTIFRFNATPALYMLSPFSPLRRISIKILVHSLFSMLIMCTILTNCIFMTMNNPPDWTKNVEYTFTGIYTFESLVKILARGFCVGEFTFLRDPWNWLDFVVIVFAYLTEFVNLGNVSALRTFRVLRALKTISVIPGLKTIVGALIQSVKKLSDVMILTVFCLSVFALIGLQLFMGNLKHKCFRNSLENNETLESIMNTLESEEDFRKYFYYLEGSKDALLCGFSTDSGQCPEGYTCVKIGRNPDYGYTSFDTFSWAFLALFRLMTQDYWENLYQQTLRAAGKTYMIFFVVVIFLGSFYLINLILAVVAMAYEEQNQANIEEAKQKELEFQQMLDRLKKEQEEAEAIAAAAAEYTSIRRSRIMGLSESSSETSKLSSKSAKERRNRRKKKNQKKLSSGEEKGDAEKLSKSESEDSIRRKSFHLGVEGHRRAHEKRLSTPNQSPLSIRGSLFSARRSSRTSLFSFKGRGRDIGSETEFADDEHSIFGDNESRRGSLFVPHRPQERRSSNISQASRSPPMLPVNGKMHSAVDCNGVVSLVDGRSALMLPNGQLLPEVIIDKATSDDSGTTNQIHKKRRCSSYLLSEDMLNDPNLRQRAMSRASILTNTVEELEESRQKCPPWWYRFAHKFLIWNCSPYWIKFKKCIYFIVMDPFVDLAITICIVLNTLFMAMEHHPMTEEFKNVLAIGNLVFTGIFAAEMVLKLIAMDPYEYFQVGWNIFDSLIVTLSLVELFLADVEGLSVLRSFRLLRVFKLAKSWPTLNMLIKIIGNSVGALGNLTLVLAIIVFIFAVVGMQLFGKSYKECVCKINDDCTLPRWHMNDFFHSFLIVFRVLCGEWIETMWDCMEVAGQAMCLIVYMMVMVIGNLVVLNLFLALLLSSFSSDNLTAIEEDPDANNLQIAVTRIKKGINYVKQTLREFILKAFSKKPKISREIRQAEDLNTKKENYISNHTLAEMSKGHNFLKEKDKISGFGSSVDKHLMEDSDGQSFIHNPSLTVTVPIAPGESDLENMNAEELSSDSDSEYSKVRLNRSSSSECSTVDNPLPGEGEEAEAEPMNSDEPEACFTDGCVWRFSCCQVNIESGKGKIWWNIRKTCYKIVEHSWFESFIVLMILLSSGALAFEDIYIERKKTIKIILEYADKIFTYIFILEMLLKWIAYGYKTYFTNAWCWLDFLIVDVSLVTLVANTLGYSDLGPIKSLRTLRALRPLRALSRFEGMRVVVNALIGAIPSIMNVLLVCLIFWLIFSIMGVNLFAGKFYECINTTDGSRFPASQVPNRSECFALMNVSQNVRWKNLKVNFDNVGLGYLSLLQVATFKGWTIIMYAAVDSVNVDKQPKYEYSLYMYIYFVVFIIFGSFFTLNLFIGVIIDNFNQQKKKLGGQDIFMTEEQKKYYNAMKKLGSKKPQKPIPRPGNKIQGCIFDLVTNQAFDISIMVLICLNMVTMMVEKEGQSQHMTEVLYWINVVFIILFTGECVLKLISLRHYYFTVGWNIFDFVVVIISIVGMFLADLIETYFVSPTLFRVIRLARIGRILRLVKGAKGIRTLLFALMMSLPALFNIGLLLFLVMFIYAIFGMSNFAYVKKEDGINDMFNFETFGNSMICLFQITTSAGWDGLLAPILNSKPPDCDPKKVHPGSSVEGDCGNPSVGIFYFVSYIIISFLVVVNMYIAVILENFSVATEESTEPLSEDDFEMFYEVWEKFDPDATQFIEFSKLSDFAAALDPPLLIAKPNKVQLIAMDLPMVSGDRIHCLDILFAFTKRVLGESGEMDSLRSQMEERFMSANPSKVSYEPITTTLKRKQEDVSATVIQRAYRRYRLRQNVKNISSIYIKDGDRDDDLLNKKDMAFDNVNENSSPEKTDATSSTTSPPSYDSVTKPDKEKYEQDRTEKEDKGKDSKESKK
The experiment in a line: IonWorks Quattro automated patch-clamp, inactivated state block of Nav1.7. It is filed as cell-based. As to conditions: channels stably expressed in HEK 293 cells; double-pulse protocol, inactivated state block; read-out: potency for the Nav 1.7 sodium ion channel (IC50, as measured by IonWorks). The procedure: as §1, §2

The values below come from US10519147B2 (Merck Sharp & Dohme Corp., priority 2015, dated 2019).

Bounds are passed on as bounds.

T1 sequence (Q14524 whole entry): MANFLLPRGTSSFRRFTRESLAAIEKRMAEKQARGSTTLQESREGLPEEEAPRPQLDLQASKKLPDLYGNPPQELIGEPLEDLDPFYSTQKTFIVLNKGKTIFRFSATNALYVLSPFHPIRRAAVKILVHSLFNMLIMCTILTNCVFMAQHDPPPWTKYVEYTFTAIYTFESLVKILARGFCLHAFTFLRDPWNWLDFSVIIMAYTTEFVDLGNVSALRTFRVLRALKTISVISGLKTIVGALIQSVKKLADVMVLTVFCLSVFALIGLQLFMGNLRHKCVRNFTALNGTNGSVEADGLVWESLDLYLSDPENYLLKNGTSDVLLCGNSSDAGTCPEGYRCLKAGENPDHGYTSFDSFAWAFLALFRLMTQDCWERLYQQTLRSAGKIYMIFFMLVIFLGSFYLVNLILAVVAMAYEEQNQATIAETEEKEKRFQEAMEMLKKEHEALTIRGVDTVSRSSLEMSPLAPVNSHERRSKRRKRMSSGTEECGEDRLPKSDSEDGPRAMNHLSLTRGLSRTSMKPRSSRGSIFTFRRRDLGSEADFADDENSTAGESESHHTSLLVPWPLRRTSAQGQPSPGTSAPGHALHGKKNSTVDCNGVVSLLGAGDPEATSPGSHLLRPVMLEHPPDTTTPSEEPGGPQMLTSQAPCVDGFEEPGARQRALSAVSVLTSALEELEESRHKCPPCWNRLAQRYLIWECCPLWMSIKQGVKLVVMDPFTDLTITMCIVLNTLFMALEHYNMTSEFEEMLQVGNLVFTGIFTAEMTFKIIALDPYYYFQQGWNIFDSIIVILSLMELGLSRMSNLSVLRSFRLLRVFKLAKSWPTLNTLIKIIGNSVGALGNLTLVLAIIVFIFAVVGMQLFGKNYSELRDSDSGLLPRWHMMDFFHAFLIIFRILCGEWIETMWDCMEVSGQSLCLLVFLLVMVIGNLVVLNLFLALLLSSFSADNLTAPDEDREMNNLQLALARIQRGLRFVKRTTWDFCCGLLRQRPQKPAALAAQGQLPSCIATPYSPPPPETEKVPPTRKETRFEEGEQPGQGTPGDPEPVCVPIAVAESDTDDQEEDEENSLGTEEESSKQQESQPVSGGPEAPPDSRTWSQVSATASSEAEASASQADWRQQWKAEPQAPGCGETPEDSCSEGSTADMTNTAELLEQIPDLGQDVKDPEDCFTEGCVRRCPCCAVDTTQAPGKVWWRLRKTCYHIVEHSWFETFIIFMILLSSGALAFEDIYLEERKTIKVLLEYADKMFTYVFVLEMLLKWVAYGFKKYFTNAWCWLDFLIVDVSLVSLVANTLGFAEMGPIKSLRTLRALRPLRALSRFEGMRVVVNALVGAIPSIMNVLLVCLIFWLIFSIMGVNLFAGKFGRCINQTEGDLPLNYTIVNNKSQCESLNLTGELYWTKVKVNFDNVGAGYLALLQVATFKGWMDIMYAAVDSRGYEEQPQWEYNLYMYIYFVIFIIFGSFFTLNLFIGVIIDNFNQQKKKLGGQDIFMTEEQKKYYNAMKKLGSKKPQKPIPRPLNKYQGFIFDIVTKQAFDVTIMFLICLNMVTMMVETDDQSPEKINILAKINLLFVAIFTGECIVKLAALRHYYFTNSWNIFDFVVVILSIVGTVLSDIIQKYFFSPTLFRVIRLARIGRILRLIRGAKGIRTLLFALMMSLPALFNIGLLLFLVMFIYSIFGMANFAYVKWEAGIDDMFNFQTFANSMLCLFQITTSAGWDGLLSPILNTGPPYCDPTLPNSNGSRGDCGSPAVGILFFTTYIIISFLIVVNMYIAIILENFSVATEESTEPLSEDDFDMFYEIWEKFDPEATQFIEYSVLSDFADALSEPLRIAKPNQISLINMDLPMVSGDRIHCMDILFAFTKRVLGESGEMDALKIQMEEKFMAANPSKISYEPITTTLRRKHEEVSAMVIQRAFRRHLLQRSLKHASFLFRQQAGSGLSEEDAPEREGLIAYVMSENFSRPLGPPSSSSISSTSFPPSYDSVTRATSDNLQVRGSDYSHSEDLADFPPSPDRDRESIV

With `N[C@@H]1CCCC[C@H]1NCCCCNc1cc(F)c(S(=O)(=O)Nc2nccs2)cc1Cl` [Ex 1-28, 4-[(4-{[(1R,2R)-2-aminocyclohexyl]amino}butyl)amino]-5-chloro-2-fluoro-N-1,3-thiazol-2-ylbenzenesulfonamide], at human Nav1.5, the “ratio of Nav 1.7 potency:Nav 1.5 potency” value is reported as above 3930. Also, on human Nav1.7, the IC50 worked out at 8.4 nM.

Turning to `N[C@@H]1CCC[C@@H]1NCCCCNc1cc(F)c(S(=O)(=O)Nc2nccs2)cc1Cl` [Ex 1-29, 4-[(4-{[(1S,2R)-2-aminocyclopentyl]amino}butyl)amino]-5-chloro-2-fluoro-N-1,3-thiazol-2-ylbenzenesulfonamide], the “ratio of Nav 1.7 potency:Nav 1.5 potency” value at human Nav1.5 is above 635. At human Nav1.7, the IC50 came to 52 nM.

Turning to `O=S(=O)(Nc1ncns1)c1cc(F)c(NCCCCNC[C@@H]2CCCN2)cc1F` [Ex 7-7, 2,5-difluoro-4-[(4-{[(2S)-pyrrolidin-2-ylmethyl]amino}butyl)amino]-N-1,2,4-thiadiazol-5-ylbenzenesulfonamide], on human Nav1.5, the “ratio of Nav 1.7 potency:Nav 1.5 potency” value is on record as above 410. Further, the IC50 at human Nav1.7 was 80 nM.

As for `N[C@@H]1CCC[C@H]1NCCCCNc1cc(F)c(S(=O)(=O)Nc2ncns2)cc1Cl` [Ex 12-07, 4-[(4-{[(1R,2R)-2-aminocyclo-pentyl]amino}butyl)amino]-5-chloro-2-fluoro-N-1,2,4-thiadiazol-5-yl-benzene-sulfonamide], the “ratio of Nav 1.7 potency:Nav 1.5 potency” value at human Nav1.5 is listed as above 5500. The IC50 on human Nav1.7 was determined as 6 nM.

In the case of `N[C@@H]1CCC[C@H]1NCCCCNc1cc(F)c(S(=O)(=O)Nc2ncc(F)s2)cc1Cl` [Ex 16-05, 4-[(4-{[(1R,2R)-2-aminocyclopentyl]-amino}-butyl)-amino]-5-chloro-2-fluoro-N-(5-fluoro-1,3-thiazol-2-yl)-benzene-sulfonamide], the “ratio of Nav 1.7 potency:Nav 1.5 potency” value on human Nav1.5 was 3400. Further, the IC50 at human Nav1.7 worked out at 5 nM.

As for `C[C@@H](N)CNCCCCNc1cc(F)c(S(=O)(=O)Nc2ncc(F)s2)cc1Cl` [Ex 16-06, 4-[(4-{[(1R,2R)-2-aminopropyl]amino}-butyl)amino]-5-chloro-2-fluoro-N-(5-fluoro-1,3-thiazol-2-yl)benzene-sulfonamide], on human Nav1.5, the “ratio of Nav 1.7 potency:Nav 1.5 potency” value is given as above 4070. Also, the IC50 at human Nav1.7 came out at 8.1 nM.

As to `N[C@@H]1CCC[C@H]1NCCCCNc1cc(F)c(S(=O)(=O)Nc2nccs2)cc1Cl` [Ex 16-09], the “ratio of Nav 1.7 potency:Nav 1.5 potency” value on human Nav1.5 is recorded as above 3590. Further, the IC50 at human Nav1.7 was 9.2 nM.

For `C[C@H](N)CNCCCCNc1cc(F)c(S(=O)(=O)Nc2nccs2)cc1Cl` [Ex 16-12, 4-[(4-{[(2S)-2-aminopropyl]-amino}butyl)amino]-5-chloro-2-fluoro-N-1,3-thiazol-2-yl-benzene-sulfonamide], on human Nav1.5, the “ratio of Nav 1.7 potency:Nav 1.5 potency” value is above 2540. Besides, at human Nav1.7, the half-maximal inhibitory concentration (IC50) was determined as 13 nM.

As to `O=S(=O)(Nc1ncc(F)s1)c1cc(Cl)c(NCCCCNC[C@H]2CCCN2)cc1F` [Ex 16-13, 5-chloro-2-fluoro-N-(5-fluoro-1,3-thiazol-2-yl)-4-[(4-{[(2R)-pyrrolidin-2-yl-methyl]amino}-butyl)-amino] benzenesulfonamide], the “ratio of Nav 1.7 potency:Nav 1.5 potency” value at human Nav1.5 amounted to 2538. Besides, at human Nav1.7, the IC50 came out at 12 nM.

For `O=S(=O)(Nc1nccs1)c1cc(Cl)c(NCCCCNCC[C@H]2CCCN2)cc1F` [Ex 16-14, 5-chloro-2-fluoro-4-{[4-({2-[(2R)-pyrrolidin-2-yl]ethyl}-amino)-butyl]-amino}-N-1,3-thiazol-2-yl-benzenesulfonamide], on human Nav1.5, the “ratio of Nav 1.7 potency:Nav 1.5 potency” value is on record as above 846. The IC50 at human Nav1.7 came to 39 nM.

Take `O=S(=O)(Nc1ncc(F)s1)c1cc(Cl)c(NCCCCNC[C@H]2CCCCN2)cc1F` [Ex 16-16, 5-chloro-2-fluoro-N-(5-fluoro-1,3-thiazol-2-yl)-4-[(4-{[(2R)-piperidin-2-yl-methyl]amino}butyl)-amino] benzenesulfonamide]: on human Nav1.5, the “ratio of Nav 1.7 potency:Nav 1.5 potency” value is reported as above 3800. For the same molecule, the IC50 on human Nav1.7 amounted to 8.7 nM.

With `O=S(=O)(Nc1ncns1)c1cc(Cl)c(NCCCCNC[C@H]2CCCN2)cc1F` [Ex 16-17, 5-chloro-2-fluoro-4-[(4-{[(2R)-pyrrolidin-2-yl-methyl]amino}butyl)amino]-N-1,2,4-thiadiazol-5-yl-benzenesulfonamide], the “ratio of Nav 1.7 potency:Nav 1.5 potency” value at human Nav1.5 is above 3980. Besides, the IC50 at human Nav1.7 worked out at 8.3 nM.

As for `O=S(=O)(Nc1ncns1)c1cc(Cl)c(NCCCCNCC[C@H]2CCCN2)cc1F` [Ex 16-20, 5-chloro-2-fluoro-4-{[4-({2-[(2R)-pyrrolidin-2-yl]ethyl}-amino)butyl]amino}-N-1,2,4-thiadiazol-5-ylbenzene-sulfonamide], the “ratio of Nav 1.7 potency:Nav 1.5 potency” value at human Nav1.5 was above 412. Further, the IC50 on human Nav1.7 came to 80 nM.

For the molecule `O=S(=O)(Nc1ncns1)c1cc(Cl)c(NCCCCNCC[C@@H]2CCCN2)cc1F` [Ex 16-21, 5-chloro-2-fluoro-4-{[4-({2-[(2S)-pyrrolidin-2-yl]ethyl}-amino)butyl]amino}-N-1,2,4-thiadiazol-5-ylbenzene-sulfonamide], on human Nav1.5, the “ratio of Nav 1.7 potency:Nav 1.5 potency” value is above 1046. The IC50 at human Nav1.7 is 31 nM.

With `O=S(=O)(Nc1ncc(F)s1)c1cc(Cl)c(NCCCCNC2CNC2)cc1F` [Ex 16-22, 4-{[4-(azetidin-3-ylamino)-butyl]amino}-5-chloro-2-fluoro-N-(5-fluoro-1,3-thiazol-2-yl)benzene-sulfonamide], the “ratio of Nav 1.7 potency:Nav 1.5 potency” value at human Nav1.5 is reported as above 868. The IC50 at human Nav1.7 was found to be 38 nM.

Take `O=S(=O)(Nc1ncc(F)s1)c1cc(Cl)c(NCCCCNCC[C@@H]2CCCN2)cc1F` [Ex 16-24, 5-chloro-2-fluoro-N-(5-fluoro-1,3-thiazol-2-yl)-4-{[4-({2-[(2S)-pyrrolidin-2-yl]ethyl}amino)butyl]amino} benzenesulfonamide]: on human Nav1.5, the “ratio of Nav 1.7 potency:Nav 1.5 potency” value was above 1571. Further, the IC50 at human Nav1.7 came to 21 nM.

For `C[C@H](CCN)NCCCCNc1cc(F)c(S(=O)(=O)Nc2ncc(F)s2)cc1Cl` [Ex 16-25, 4-[(4-{[(1R)-3-amino-1-methylpropyl]amino}butyl)amino]-5-chloro-2-fluoro-N-(5-fluoro-1,3-thiazol-2-yl)-benzenesulfonamide], the “ratio of Nav 1.7 potency:Nav 1.5 potency” value on human Nav1.5 is recorded as above 1270. Also, on human Nav1.7, the half-maximal inhibitory concentration (IC50) is 26 nM.

For the molecule `CC(C)(CCN)NCCCCNc1cc(F)c(S(=O)(=O)Nc2ncc(F)s2)cc1Cl` [Ex 16-27, 4-({4-[(3-amino-1,1-dimethylpropyl)amino]butyl}amino)-5-chloro-2-fluoro-N-(5-fluoro-1,3-thiazol-2-yl)-benzenesulfonamide], the “ratio of Nav 1.7 potency:Nav 1.5 potency” value at human Nav1.5 is on record as above 1737. Further, on human Nav1.7, the IC50 came to 19 nM.

Turning to `CNCCCNCCCCNc1cc(F)c(S(=O)(=O)Nc2ncc(F)s2)cc1Cl` [Ex 16-28, 5-chloro-2-fluoro-N-(5-fluoro-1,3-thiazol-2-yl)-4-[(4-{[3-(methylamino)-propyl]amino}butyl)amino]-benzenesulfonamide], the “ratio of Nav 1.7 potency:Nav 1.5 potency” value at human Nav1.5 is given as above 1320. Besides, at human Nav1.7, the IC50 was 25 nM.

On to `C[C@@H](N)CCNCCCCNc1cc(F)c(S(=O)(=O)Nc2ncc(F)s2)cc1Cl` [Ex 16-30, 4-[(4-{[(3R)-3-amino-butyl]amino}butyl)amino]-5-chloro-2-fluoro-N-(5-fluoro-1,3-thiazol-2-yl)benzene-sulfonamide], for which the “ratio of Nav 1.7 potency:Nav 1.5 potency” value at human Nav1.5 is recorded as above 2357. Further, at human Nav1.7, the IC50 is 14 nM.

Consider `NCCCNCCCCNc1cc(F)c(S(=O)(=O)Nc2ncns2)cc1Cl` [Ex 16-32, 4-({4-[(3-aminopropyl)-amino]butyl}amino)-5-chloro-2-fluoro-N-1,2,4-thiadiazol-5-ylbenzene-sulfonamide], for which the “ratio of Nav 1.7 potency:Nav 1.5 potency” value at human Nav1.5 was above 673. Moreover, the IC50 on human Nav1.7 turned out to be 49 nM.

On to `CNCCNCCCCNc1cc(F)c(S(=O)(=O)Nc2ncns2)cc1Cl` [Ex 16-48, 5-chloro-2-fluoro-4-[(4-{[2-(methylamino)ethyl]amino}-butyl)amino]-N-1,2,4-thiadiazol-5-ylbenzene-sulfonamide], for which, at human Nav1.5, the “ratio of Nav 1.7 potency:Nav 1.5 potency” value was above 3750. Moreover, the IC50 on human Nav1.7 turned out to be 8.8 nM.

In the case of `NCCNCCCCNc1cc(F)c(S(=O)(=O)Nc2ncc(F)s2)cc1Cl` [Ex 16-57, 4-({4-[(2-aminoethyl)-amino]butyl}amino)-5-chloro-2-fluoro-N-(5-fluoro-1,3-thiazol-2-yl) benzene-sulfonamide], the “ratio of Nav 1.7 potency:Nav 1.5 potency” value on human Nav1.5 is given as above 4400. For the same molecule, the IC50 on human Nav1.7 came to 7.5 nM.

Take `C[C@H](CN)NCCCCNc1cc(F)c(S(=O)(=O)Nc2ncc(F)s2)cc1Cl` [Ex 16-59, 4-[(4-{[(1R)-2-amino-1-methylethyl]amino}butyl)-amino]-5-chloro-2-fluoro-N-(5-fluoro-1,3-thiazol-2-yl)-benzenesulfonamide]: the “ratio of Nav 1.7 potency:Nav 1.5 potency” value at human Nav1.5 was above 1941. Further, the IC50 on human Nav1.7 stood at 17 nM.

Regarding `NCC1(NCCCCNc2cc(F)c(S(=O)(=O)Nc3ncc(F)s3)cc2Cl)CCC1` [Ex 16-62, 4-[(4-{[1-(aminomethyl)cyclobutyl]amino}butyl)amino]-5-chloro-2-fluoro-N-(5-fluoro-1,3-thiazol-2-yl)benzenesulfonamide], the “ratio of Nav 1.7 potency:Nav 1.5 potency” value on human Nav1.5 is above 917. Moreover, the IC50 at human Nav1.7 was 36 nM.

Usually IC50 stands for the concentration that gives 50% inhibition.
